From patent US7683162B2, “Process of preparing a crystalline azithromycin monohydrate” (Taro Pharmaceutical Industries Limited, priority 2004, dated 2010)
Read-outs that look alike come from different tables or passages of the source. Each block holds one molecule with its values, some of them ahead of it.

Legend:
[1] = cited from earlier work; for hygroscopicity (in words) / stability (in words): as described in the cited patent or publication
[2] = Storage of crystalline azithromycin monohydrate under accelerated conditions (40° C. and 75% relative humidity); assay type: physicochemical
Source text: (§1) The drying step in step (d) may be performed in stages. To achieve the desired water content, the isolated precipitate may first be dried for a period of time; and then dried for a subsequent period of time. Water content may be conveniently determined at different stages to ensure that a specified water content is achieved. Drying time and conditions may be easily optimized by one skilled in the art. Water content determination is in accordance to U.S. Pharmacopeia (USP) <921> Method I, which is incorporated herein by reference in its entirety.
(§2) (i) Chromatographic Conditions—The purity of a crystalline azithromycin monohydrate sample was determined using a high performance liquid chromatography (HPLC) instrument with a variable wavelength detector. The chromatographic conditions were: (i) Column—Xterra RP-18, endcapped 5 μm, 250×4.6 mm or equivalent; (ii) Flow Rate—1.0 mL/min; (iii) Column temperature—28° C.; (iv) Detection—UV at 215 nm; (v) Injection volume—20 μL; (vi) Run time—30 min; and, (vii) Mobile phase,Borate buffer pH=9.5: Acetonitrile (1:1, v/v). The mobile phase was prepared by adding NaOH (5N) to a solution of boric acid (about 1.2 grams) in water (1,000 mL; HPLC grade) to obtain a pH of 9.5.
(§3) (ii) Standard Solution for Purity Determination—A standard solution for purity determination was prepared by dissolving azithromycin monohydrate (about 50 mg, accurately weighed), in sufficient acetonitrile to fill a 25 mL volumetric flask. The azithromycin monohydrate used in the standard solution was prepared according to the procedure set forth in U.S. Pat. No. 6,268,489.
(§4) (iii) Preparation of Crystalline Azithromycin Monohydrate Sample Solution—A crystalline azithromycin monohydrate sample solution was prepared by transferring approximately 50 mg of the crystalline azithromycin monohydrate sample to be assayed into a 25 mL volumetric flask and diluting to volume with acetonitrile.
(§5) (iv) HPLC Protocol—The retention time of azithromycin was about 20 minutes. The retention time of azaerythromycin was about 13 minutes. Six replicates of the standard solution for determination of impurities, and 5 replicates of the standard solution for purity determination were injected into the HPLC system. The relative standard deviation of 5 replicate injections of the standard solution for purity determination was not more than 2.0%. The relative standard deviation of 6 replicate injections of the standard solution for determination of impurities was not more than 5.0%. If necessary, the mobile phase composition and/or flow rate were adjusted to meet the chromatographic parameters. The limit of detection for azaerythromycin was 0.04%. The limit of quantitation for azaerythromycin was 0.04%. The limit of detection for azithromycin was 0.04%. The limit of quantitation for azithromycin was 0.05%.
(§6) [formula] The terms are defined as follows: (i) Wst=Weight of standard in mg; (ii) Wsm=Weight of sample in mg; (iii) Ssm=Peak area of azithromycin obtained from sample solution; (iv) Sst=Average peak area of azithromycin obtained from standard solution for purity determination; (v) Pst=Purity of azithromycin standard in percent; and (vi) Msm=Water content of sample in percent. (B) Determination of Ethanol Content of Crystalline Azithromycin Monohydrate
(§7) The hygroscopicity of a crystalline azithromycin monohydrate was determined by monitoring its water content during storage. Specifically, the water content of the crystalline azithromycin monohydrate was determined at time zero and at various times thereafter during storage (e.g., 1, 2, and 3 months) under ambient conditions and accelerated conditions.

[3] = Storage of crystalline azithromycin monohydrate under ambient conditions (25° C. and 60% relative humidity); assay type: physicochemical
Source text: as §1, §2, §3, §4, §5, §6, §7

[4] = 3 months at 40° C. and 75% relative humidity
[5] = 40° C., 75% relative humidity, 0 months
[6] = 40° C., 75% relative humidity, 1 month
[7] = 40° C., 75% relative humidity, 2 months
[8] = 40° C., 75% relative humidity, 3 months
[9] = 3 months at 25° C. and 60% relative humidity
[10] = 25° C., 60% relative humidity, 0 months
[11] = 25° C., 60% relative humidity, 3 months

SMILES: CC[C@H]1OC(=O)[C@H](C)[C@@H](O[C@H]2C[C@@](C)(OC)[C@@H](O)[C@H](C)O2)[C@H](C)[C@@H](O[C@@H]2O[C@H](C)C[C@H](N(C)C)[C@H]2O)[C@](C)(O)C[C@@H](C)CN(C)[C@H](C)[C@@H](O)[C@]1(C)O [azithromycin dihydrate]
hygroscopicity (in words) [1]: non-hygroscopic | stability (in words) [1]: stable

SMILES: CC[C@H]1OC(=O)[C@H](C)[C@@H](O[C@H]2C[C@@](C)(OC)[C@@H](O)[C@H](C)O2)[C@H](C)[C@@H](O[C@@H]2O[C@H](C)C[C@H](N(C)C)[C@H]2O)[C@](C)(O)C[C@@H](C)CN(C)[C@H](C)[C@@H](O)[C@]1(C)O.O [azithromycin monohydrate form]
hygroscopicity (in words) [1]: non-hygroscopic | stability (in words) [1]: stable

SMILES: CC[C@H]1OC(=O)[C@H](C)[C@@H](O[C@H]2C[C@@](C)(OC)[C@@H](O)[C@H](C)O2)[C@H](C)[C@@H](O[C@@H]2O[C@H](C)C[C@H](N(C)C)[C@H]2O)[C@](C)(O)C[C@@H](C)CN(C)[C@H](C)[C@@H](O)[C@]1(C)O [azithromycin monohydrate]
hygroscopicity (in words) [1]: hygroscopic | stability (in words) [1]: unstable

SMILES: CC[C@H]1OC(=O)[C@H](C)[C@@H](OC2CC(C)(OC)C(O)C(C)O2)[C@H](C)[C@@H](OC2OC(C)CC(N(C)C)C2O)[C@](C)(O)C[C@@H](C)CN(C)[C@H](C)C(O)[C@]1(C)O (stereo partly drawn) [azithromycin, 9-deoxo-9a-aza-9a-methyl-9a-homoerythromycin A]
stability under acidic conditions ([1]; acidic conditions, U.S. Pat. No. 6,586,576 B2): unstable

degradation after storage ([2]; 3 months (at least about 3 months), 40° C. and 75% relative humidity): less than 2 % (w/w) | hygroscopicity (in words) [2, 4]: non-hygroscopic | stability (in words) [2, 4]: stable | water content after storage (in words) ([2]; 3 months under accelerated conditions): remained substantially unchanged | Appearance [2, 5]: White | Azaerythromycin [2, 5]: 0.3% | Other Impurities, RRT = 0.23 [2, 5]: % = 0.10 | Other Impurities, RRT = 0.26 [2, 5]: % = 0.20 | Other Impurities, RRT = 0.34 [2, 5]: % = 0.10 | Other Impurities, RRT = 0.42 [2, 5]: % = 0.30 | Other Impurities, RRT = 0.45 [2, 5]: % = 0.07 | Other Impurities, RRT = 0.48 [2, 5]: % = 0.20 | Other Impurities, RRT = 1.45 [2, 5]: % = 0.05 | Other Impurities, RRT = 1.50 [2, 5]: % = 0.20 | Other Impurities, RRT = 1.56 [2, 5]: % = 0.10 | Purity [2, 5]: 100.10% | Total Impurities [2, 5]: 1.60% | Water content [2, 5]: 5.9% | pH [2, 5]: 10.4 | Appearance [2, 6]: White | Azaerythromycin [2, 6]: 0.4% | Other Impurities, RRT 0.23 [2, 6]: 0.23, 0.10% | Other Impurities, RRT 0.26 [2, 6]: 0.26, 0.20% | Other Impurities, RRT 0.35 [2, 6]: 0.35, 0.10% | Other Impurities, RRT 0.38 [2, 6]: 0.38, 0.05% | Other Impurities, RRT 0.43 [2, 6]: 0.43, 0.30% | Other Impurities, RRT 0.46 [2, 6]: 0.46, 0.08% | Other Impurities, RRT 0.48 [2, 6]: 0.48, 0.20% | Other Impurities, RRT 1.50 [2, 6]: 1.50, 0.20% | Other Impurities, RRT 1.56 [2, 6]: 1.56, 0.20% | Purity [2, 6]: 101.00% | Total Impurities [2, 6]: 1.80% | Water content [2, 6]: 5.9% | pH [2, 6]: 10.0 | Appearance [2, 7]: White | Azaerythromycin [2, 7]: 0.3% | Other Impurities, RRT 0.23 [2, 7]: 0.23, 0.10% | Other Impurities, RRT 0.25 [2, 7]: 0.25, 0.20% | Other Impurities, RRT 0.34 [2, 7]: 0.34, 0.10% | Other Impurities, RRT 0.42 [2, 7]: 0.42, 0.40% | Other Impurities, RRT 0.45 [2, 7]: 0.45, 0.05% | Other Impurities, RRT 0.48 [2, 7]: 0.48, 0.20% | Other Impurities, RRT 1.50 [2, 7]: 1.50, 0.20% | Other Impurities, RRT 1.56 [2, 7]: 1.56, 0.10% | Purity [2, 7]: 99.50% | Total Impurities [2, 7]: 1.70% | Water content [2, 7]: 5.8% | pH [2, 7]: 10.3 | Appearance [2, 8]: White | Azaerythromycin [2, 8]: 0.3% | Other Impurities, RRT 0.14 [2, 8]: 0.14, 0.20% | Other Impurities, RRT 0.24 [2, 8]: 0.24, 0.10% | Other Impurities, RRT 0.35 [2, 8]: 0.35, 0.20% | Other Impurities, RRT 0.43 [2, 8]: 0.43, 0.40% | Other Impurities, RRT 0.46 [2, 8]: 0.46, 0.07% | Other Impurities, RRT 0.49 [2, 8]: 0.49, 0.20% | Other Impurities, RRT 0.81 [2, 8]: 0.81, 0.06% | Other Impurities, RRT 0.85 [2, 8]: 0.85, 0.05% | Other Impurities, RRT 1.50 [2, 8]: 1.50, 0.20% | Other Impurities, RRT 1.55 [2, 8]: 1.55, 0.08% | Purity [2, 8]: 98.10% | Total Impurities [2, 8]: 1.90% | Water content [2, 8]: 5.7% | pH [2, 8]: 10.3 | degradation after storage ([2]; at least 3 months at 40° C. and 75% relative humidity): less than 2% | change in the water content after storage ([2]; at least about 3 months at 40° C. and 75% relative humidity): less than 5% | hygroscopicity (in words) [3, 9]: non-hygroscopic | stability (in words) [3, 9]: stable | water content after storage (in words) ([3]; 3 months under ambient conditions): remained substantially unchanged | degradation products present after storage ([3]; 3 months, ambient (room temperature)): less than 2 % (w/w) | Appearance [3, 10]: White crystalline | Azaerythromycin [3, 10]: 0.3% | Other Impurities, RRT = 0.23 [3, 10]: RRT = 0.23, % = 0.10 | Other Impurities, RRT = 0.26 [3, 10]: RRT = 0.26, % = 0.20 | Other Impurities, RRT = 0.34 [3, 10]: RRT = 0.34, % = 0.10 | Other Impurities, RRT = 0.42 [3, 10]: RRT = 0.42, % = 0.30 | Other Impurities, RRT = 0.45 [3, 10]: RRT = 0.45, % = 0.07 | Other Impurities, RRT = 0.48 [3, 10]: RRT = 0.48, % = 0.20 | Other Impurities, RRT = 1.45 [3, 10]: RRT = 1.45, % = 0.05 | Other Impurities, RRT = 1.50 [3, 10]: RRT = 1.50, % = 0.20 | Other Impurities, RRT = 1.56 [3, 10]: RRT = 1.56, % = 0.10 | Purity [3, 10]: 100.10% | Total Impurities [3, 10]: 1.60% | Water content [3, 10]: 5.9% | pH [3, 10]: 10.4 | Appearance [3, 11]: White crystalline | Azaerythromycin [3, 11]: 0.3% | Other Impurities, RRT = 0.10 [3, 11]: RRT = 0.10, % = 0.20 | Other Impurities, RRT = 0.24 [3, 11]: RRT = 0.24, % = 0.10 | Other Impurities, RRT = 0.35 [3, 11]: RRT = 0.35, % = 0.10 | Other Impurities, RRT = 0.43 [3, 11]: RRT = 0.43, % = 0.30 | Other Impurities, RRT = 0.46 [3, 11]: RRT = 0.46, % = 0.07 | Other Impurities, RRT = 0.49 [3, 11]: RRT = 0.49, % = 0.20 | Other Impurities, RRT = 0.81 [3, 11]: RRT = 0.81, % = 0.10 | Other Impurities, RRT = 0.84 [3, 11]: RRT = 0.84, % = 0.08 | Other Impurities, RRT = 1.50 [3, 11]: RRT = 1.50, % = 0.20 | Other Impurities, RRT = 1.55 [3, 11]: RRT = 1.55, % = 0.10 | Purity [3, 11]: 98.70% | Total Impurities [3, 11]: 1.80% | Water content [3, 11]: 5.8% | pH [3, 11]: 10.2
SMILES: CC[C@H]1OC(=O)[C@H](C)[C@@H](O[C@H]2C[C@@](C)(OC)[C@@H](O)[C@H](C)O2)[C@H](C)[C@@H](O[C@@H]2O[C@H](C)C[C@H](N(C)C)[C@H]2O)[C@](C)(O)C[C@@H](C)CN(C)[C@H](C)[C@@H](O)[C@]1(C)O.O [crystalline azithromycin monohydrate]
